# Earlier results in patent US4018912A, “Tripeptide derivatives with central nervous system activity and preparation thereof” (Ayerst McKenna and Harrison Ltd., priority 1975, dated 1977).
# Read-outs that look alike come from different tables or passages of the source.
# What was measured:
# effects of L-DOPA = conditions: literature (Plotnikoff et al. 1971; Friedman et al. 1973)
# [1] = prior art; due to rapid inactivation in the mammalian body
# effects of oxotremorine = conditions: literature (Plotnikoff et al. 1972)
# [2] = test system: sedative effects of deserpidine; conditions: mice; literature (Plotnikoff et al. 1973)
# [3] = test system: sedative effects of deserpidine; conditions: monkeys; literature (Plotnikoff et al. 1973)
# [4] = in vivo
substance,measurement,setting,value
H-L-prolyl-L-leucyl-glycinamide [H--Pro--Leu--Gly--NH2],potentiation of the behavioral effects of L-DOPA,effects of L-DOPA,"potentiates the behavioral effects of (3,4-dihydroxyphenyl)-L-alanine (L-DOPA)"
same,duration of action,[1],short duration of action
same,antagonism of the effects of oxotremorine,effects of oxotremorine,antagonizes the effects of oxotremorine
same,reversal of the sedative effects of deserpidine,[2],reverses the sedative effects of deserpidine
same,reversal of the sedative effects of deserpidine,[3],reverses the sedative effects of deserpidine
same,first step in the inactivation,[4],proteolytic cleavage of the Pro-Leu bond with formation of proline and leucyl-glycinamide
